One test concerns MCF-7 cells. The test can be described thus: Cytotoxicity test (MTT cell viability). The note with it: 0 to 100 µM, 24 hours incubation plus 48 hours growth. The format is cell-based, human. As for the experimental part:
(§1) The human MCF-7 breast adenocarcinoma and murine MC3T3-E1 embryonic fibroblast cell lines were growth in RPMI 1640 and DMEM medium, respectively, supplemented with 10% heated inactivated foetal bovine serum (FBS), 1% L-glutamine, 1% penicillin-streptomycin-amphotericin B mixture. All cells were maintained at 37 °C in humidified 5% CO2 atmosphere and splitted every 2-3 day.
(§2) MCF-7 and MC3T3-E1 cells were plated in 96-well flat bottomed microassay plates (1 × 10^4 cells/well) and grown for 24 hours. After complete adhesion, (arginyl)7-maltotriosyl-N-acetyl-amino-dodecanoic acid or 2 kDa polyethylenimine (PEI) as control were added to the culture media at increasing concentrations: from 0 to 100 µM. The cells were incubated for 24 hours at 37°C and then the medium was discarded by aspiration and replaced with 200 µl of fresh medium. The cells were grown for further 48 hours. Twenty microliters of 5 mg/mL of 3-(4,5-dimethylthiazol-2-yl)-2,5-diphenyltetrazolium bromide (MTT) in D-PBS were added to each well. […] The plates were gently shaken for 30 min and absorbance was measured at 570 nm with a reference wavelength of 630 nm. The cell viability was expressed as a percent viability of treated cells against untreated cells used as control. […]

In another test the test system is MC3T3-E1 cells. The test can be described thus: Cytotoxicity test (MTT cell viability). The format is cell-based, murine. The following applies: 0 to 100 µM, 24 hours incubation plus 48 hours growth. On the procedure: as §1, §2

For orientation: IC50 means the concentration that inhibits the measured activity by half. Regarding “(arginyl)7-maltotriosyl-N-acetyl-amino-dodecanoic acid”, the IC50 in the test with MCF-7 cells and in the test with MC3T3-E1 cells was above 100 µM throughout.

The values above are taken from patent EP2665736B1, “CORONA-LIKE (GUANIDYL)-OLIGOSACCHARIDIC DERIVATIVES AS CELL-P[…] FOR INTRACELLULAR DELIVERY OF COLLOIDAL T[…]” (Universita' Degli Studi Di Padova, priority 2011, dated 2012).
